Data set [1] concerns IDO-1. Set-up: method as in PMID 30108982. The conditions noted are these: known inhibitors, Figure 1; cited from earlier work.
Data set [2] has as its target T1, hIDO-1 (Homo sapiens, UniProt P14902). Put plainly: hIDO-1 enzymatic assay. In kind it is biochemical. Particulars: mean ± SE of two independent experiments; for inhibition at 20 µM: 20 µM compound, read-out: Inhibitory Rate at 20 µM (enzymatic); for IC50: rhIDO-1, L-tryptophan substrate, 37 °C 30 min.
Data set [3] concerns the target T1, hIDO-1. Put plainly: Cell-based assay of IDO-1 activity in HEK 293 cells transfected with pcDNA3.1-hIDO-1. More on the design: expressed in transfected cells; host or cells: HEK 293. The conditions noted are these: HEK 293-hIDO-1 cells, 12-h incubation; mean ± SE of two independent experiments; read-out: Cellular IC50.

T1 sequence (P14902 whole entry): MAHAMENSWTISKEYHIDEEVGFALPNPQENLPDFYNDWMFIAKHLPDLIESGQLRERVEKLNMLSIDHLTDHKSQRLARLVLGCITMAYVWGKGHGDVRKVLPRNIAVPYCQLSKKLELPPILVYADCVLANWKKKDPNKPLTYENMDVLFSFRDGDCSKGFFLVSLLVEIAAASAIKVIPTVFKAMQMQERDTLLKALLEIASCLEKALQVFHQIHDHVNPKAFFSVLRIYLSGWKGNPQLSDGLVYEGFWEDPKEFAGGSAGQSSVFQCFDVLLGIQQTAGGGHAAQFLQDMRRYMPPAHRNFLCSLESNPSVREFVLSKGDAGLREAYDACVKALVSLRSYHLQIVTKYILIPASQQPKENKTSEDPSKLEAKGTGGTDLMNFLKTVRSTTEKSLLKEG

As for `Cc1cccc2c3c(ccc12)C1=C(C(=O)C3=O)C(C)CO1` (centres unmarked) [Compound 4], the IC50 in data set [1] is 1.3 µM.
`Cc1c(-c2c(C)c(O)c3ccccc3c2O)oc2c1C(=O)C(=O)c1c-2ccc2c1CCCC2(C)C` [Compound 5]: in data set [1], the IC50 is 4.1 µM.
Consider `Cc1coc2c1C(=O)C(=O)c1c-2ccc2c1CCCC2(C)C` [Compound 6, Tan-IIA, reference compound], for which, in data set [2], the inhibition at 20 µM was determined as 23.1 ± 1.6% and the IC50 is over 20 µM.
Molecule `CC(=O)OC1CCC(C)(C)c2ccc3c(c21)C(=O)C(=O)c1c(C)coc1-3` (centres unmarked) [Compound 7a] yielded an IC50 in data set [2] of 3.72 ± 0.45 µM.
The molecule `CCC(=O)OC1CCC(C)(C)c2ccc3c(c21)C(=O)C(=O)c1c(C)coc1-3` (centres unmarked) [Compound 7b] registered an IC50 in data set [2] of 4.72 ± 0.3 µM.
As to `CCC(=O)OC1CCC(C)(C)c2ccc3c(c21)C(=O)C(=O)c1c-3oc(-c2ccsc2)c1C` (centres unmarked) [Compound 7c], in data set [2], the inhibition at 20 µM stood at 29.3 ± 2.2%.
For `CCC(=O)OC1CCC(C)(C)c2ccc3c(c21)C(=O)C(=O)c1c-3oc(-c2ccccc2)c1C` (centres unmarked) [Compound 7d], the inhibition at 20 µM in data set [2] stood at 21.5 ± 1.1%.
Consider `CCOC(=O)/C=C/C(=O)OC1CCC(C)(C)c2ccc3c(c21)C(=O)C(=O)c1c(C)coc1-3` (centres unmarked) [Compound 7e], for which, in data set [2], the IC50 was 7.47 ± 3.58 µM.
As to `Cc1coc2c1C(=O)C(=O)c1c-2ccc2c1C(OC(=O)CO)CCC2(C)C` (centres unmarked) [Compound 7f], the IC50 in data set [2] worked out at 2.74 ± 0.1 µM.
Turning to `Cc1coc2c1C(=O)C(=O)c1c-2ccc2c1C(OC(=O)C1CC1)CCC2(C)C` (centres unmarked) [Compound 7g], in data set [2], the midpoint of inhibition, the IC50, lay at 7.05 ± 2.46 µM.
Regarding `Cc1coc2c1C(=O)C(=O)c1c-2ccc2c1C(OC(=O)C1CCCCC1)CCC2(C)C` (centres unmarked) [Compound 7h], the inhibition at 20 µM in data set [2] worked out at 48 ± 3.2%.
The same measure, in the same setting: in the case of `Cc1coc2c1C(=O)C(=O)c1c-2ccc2c1C(OC(=O)c1ccccc1)CCC2(C)C` (centres unmarked) [Compound 7i] it was 54.5 ± 2.3%.
For the molecule `Cc1coc2c1C(=O)C(=O)c1c-2ccc2c1C(OC(=O)c1cccs1)CCC2(C)C` (centres unmarked) [Compound 7j], the inhibition at 20 µM in data set [2] was 60.4 ± 3.9%.
The molecule `Cc1coc2c1C(=O)C(=O)c1c-2ccc2c1C(OC(=O)c1ccoc1)CCC2(C)C` (centres unmarked) [Compound 7k] gave an IC50 in data set [2] of 4.6 ± 2.81 µM.
`Cc1coc2c1C(=O)C(=O)c1c-2ccc2c1C(OC(=O)c1nccs1)CCC2(C)C` (centres unmarked) [Compound 7l] showed an IC50 in data set [2] of 5.71 ± 0.47 µM.
Molecule `Cc1coc2c1C(=O)C(=O)c1c-2ccc2c1C(OC(=O)c1cnccn1)CCC2(C)C` (centres unmarked) [Compound 7m] returned an IC50 in data set [2] of 4.96 ± 2.02 µM.
Molecule `Cc1coc2c1C(=O)C(=O)c1c-2ccc2c1C(O)CCC2(C)C` (centres unmarked) [Compound 8] came in with an IC50 in data set [2] of 2.83 ± 0.12 µM.
As for `Cc1coc2c1C(=O)C(=O)c1c-2ccc2c1C=CCC2(C)C` [Compound 9, 1,6,6-trimethyl-6,7-dihydrophenanthro[1,2-b]furan-10,11-dione], the inhibition at 20 µM in data set [2] amounted to 61.2 ± 2.1%. The IC50 in data set [1] was 4.68 µM; in data set [3] it was over 10 µM.
`Cc1coc2c1C(=O)C(=O)c1c-2ccc2c1C=CC(O)C2(C)C` (centres unmarked) [Compound 10, 7-hydroxy-1,6,6-trimethyl-6,7-dihydrophenanthro[1,2-b]furan-10,11-dione] showed a melting point of 185.2 to 188.5 °C. The molecule also had an IC50 in data set [2] of 3.1 ± 1.02 µM. In data set [3], the IC50 is over 10 µM.
For the molecule `Cc1coc2c1C(=O)C(=O)c1c-2ccc2c1C=CC(=O)C2(C)C` [Compound 11, 1,6,6-trimethylphenanthro[1,2-b]furan-7,10,11(6H)-trione], the melting point was 261.2 to 262.8 °C. The same molecule gave an IC50 in data set [2] of 0.84 ± 0.26 µM. Moreover, the IC50 in data set [3] is over 10 µM.
Regarding `CC1(C)C(=O)C=Cc2c1ccc1c2C(=O)C(=O)c2c(CO)coc2-1` [Compound 12, 1-(hydroxymethyl)-6,6-dimethylphenanthro[1,2-b]furan-7,10,11(6H)-trione], the 50% inhibitory concentration (IC50) came to 0.37 ± 0.02 µM in data set [2] and 3.85 ± 0.86 µM in data set [3].
Molecule `Cc1coc2c1C(=O)C(=O)c1c-2ccc2c1C(=O)C=CC2(C)C` [Compound 14, 1,6,6-trimethylphenanthro[1,2-b]furan-9,10,11(6H)-trione] showed a melting point of 158.3 to 160.8 °C. In data set [2], the inhibition at 20 µM was 52.7 ± 2.5% and the IC50 was about 20 µM. In data set [3], the IC50 was over 10 µM.
As to `CC1(C)C=CC(=O)c2c1ccc1c2C(=O)C(=O)c2c(CO)coc2-1` [Compound 15, 1-(hydroxymethyl)-6,6-dimethylphenanthro[1,2-b]furan-9,10,11(6H)-trione], in data set [2], the inhibition at 20 µM is 68 ± 8.6% and the IC50 is about 20 µM.

The IC50 is the midpoint of a concentration-inhibition curve. One may read the melting point as the temperature of the solid-liquid transition.

Source of the values: PMC6471201, “Discovery of Indoleamine 2,3-Dioxygenase 1 (IDO-1) Inhibitors Based on Ortho-Naphthaquinone-Containing Natural Product” (Molecules, 2019).
